Results taken from PubChem BioAssay AID256 (DTP/NCI, 2004).
Where “and” joins values, the source holds several entries; their conditions need not be identical. Equal values may be shown once. Inconclusive results and toxic doses are left out. The calls were made as follows: active = survival T/C of 150% or more; inactive = T/C below 125% in these data.

System: CD2F1 mice, L1210 leukemia ip, survival T/C
Experiment: NCI In Vivo Anticancer Drug Screen. Data for tumor model L1210 Leukemia (intraperitoneal) in CD2F1 (CDF1) mice
Settings: higher = longer survival
Method in brief: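 In this screen, transplantable tumors were grown in mice given either the compound or its vehicle. Results were expressed as the treated measurement relative to the control measurement.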

[1] = endpoint: mean survival time, dose: 12.5 mg/kg/injection, schedule: Q01DX009 (ip), vehicle: saline with Tween-80
[2] = endpoint: mean survival time, dose: 25.0 mg/kg/injection, schedule: Q01DX009 (ip), vehicle: saline with Tween-80
[3] = endpoint: mean survival time, dose: 50.0 mg/kg/injection, schedule: Q01DX009 (ip), vehicle: saline with Tween-80
[4] = endpoint: mean survival time, dose: 50.0 mg/kg/injection, schedule: Q04DX002 (ip), vehicle: saline with Tween-80
[5] = endpoint: mean survival time, dose: 100.0 mg/kg/injection, schedule: Q01DX009 (ip), vehicle: saline with Tween-80
[6] = endpoint: mean survival time, dose: 100.0 mg/kg/injection, schedule: Q04DX003 (ip), vehicle: saline with Tween-80
[7] = endpoint: mean survival time, dose: 200.0 mg/kg/injection, schedule: Q01DX009 (ip), vehicle: saline with Tween-80
[8] = endpoint: mean survival time, dose: 200.0 mg/kg/injection, schedule: Q04DX003 (ip), vehicle: saline with Tween-80
[9] = endpoint: mean survival time, dose: 400.0 mg/kg/injection, schedule: Q01DX009 (ip), vehicle: saline with Tween-80
[10] = endpoint: mean survival time, dose: 400.0 mg/kg/injection, schedule: Q04DX003 (ip), vehicle: saline with Tween-80
[11] = endpoint: mean survival time, dose: 25.0 mg/kg/injection, schedule: Q04DX003 (ip), vehicle: saline with Tween-80
[12] = endpoint: mean survival time, dose: 50.0 mg/kg/injection, schedule: Q04DX003 (ip), vehicle: saline with Tween-80
[13] = endpoint: mean survival time, dose: 100.0 mg/kg/injection, schedule: Q01DX001 (ip), vehicle: saline
[14] = endpoint: mean survival time, dose: 200.0 mg/kg/injection, schedule: Q01DX001 (ip), vehicle: saline
[15] = endpoint: mean survival time, dose: 400.0 mg/kg/injection, schedule: Q01DX001 (ip), vehicle: saline
[16] = endpoint: mean survival time, dose: 100.0 mg/kg/injection, schedule: Q04DX002 (ip), vehicle: saline with Tween-80
[17] = endpoint: mean survival time, dose: 200.0 mg/kg/injection, schedule: Q04DX002 (ip), vehicle: saline with Tween-80

Measured: T/C

CC(=Nc1ccccc1)C1=C(O)C(Cc2ccccc2)NC1=O (configuration not stated)
inactive: [1] 98 % of control and 103 % of control | endpoint: mean survival time, dose: 12.5 mg/kg/injection, schedule: Q04DX002 (ip), vehicle: saline with Tween-80 100 % of control | [2] 102 % of control and 111 % of control | endpoint: mean survival time, dose: 25.0 mg/kg/injection, schedule: Q04DX002 (ip), vehicle: saline with Tween-80 103 % of control | [3] 118 % of control and 108 % of control | [4] 103 % of control | [5] 110 % of control

Cc1cc(-c2ccccc2)cc(=S)[nH]1
inactive: endpoint: mean survival time, dose: 100.0 mg/kg/injection, schedule: Q01DX001 (ip), vehicle: carboxymethylcellulose (CMC) 88 % of control | endpoint: mean survival time, dose: 200.0 mg/kg/injection, schedule: Q01DX001 (ip), vehicle: carboxymethylcellulose (CMC) 94 % of control | endpoint: mean survival time, dose: 400.0 mg/kg/injection, schedule: Q01DX001 (ip), vehicle: carboxymethylcellulose (CMC) 95 % of control

O=C(O)CCN1CCCc2ccccc21
inactive: endpoint: mean survival time, dose: 100.0 mg/kg/injection, schedule: Q01DX009 (ip), vehicle: other 109 % of control | endpoint: mean survival time, dose: 100.0 mg/kg/injection, schedule: Q04DX003 (ip), vehicle: other 95 % of control | endpoint: mean survival time, dose: 200.0 mg/kg/injection, schedule: Q01DX009 (ip), vehicle: other 103 % of control | endpoint: mean survival time, dose: 200.0 mg/kg/injection, schedule: Q04DX003 (ip), vehicle: other 107 % of control | endpoint: mean survival time, dose: 400.0 mg/kg/injection, schedule: Q04DX003 (ip), vehicle: other 96 % of control

CC1(C)CC2(OC2c2ccccc2[N+](=O)[O-])C(=O)c2ccccc21 (configuration not stated)
inactive: [5] 98 % of control | [6] 96 % of control | [7] 96 % of control | [8] 98 % of control | [9] 96 % of control | [10] 91 % of control

CC(=O)c1ccc2c3c(ccc([N+](=O)[O-])c13)CC2
inactive: [5] 94 % of control | [6] 100 % of control and 98 % of control | [8] 100 % of control and 98 % of control | [10] 98 % of control and 101 % of control

c1ccc(COCC2OC(C3N(c4ccccc4)CCN3c3ccccc3)C(OCc3ccccc3)C2OCc2ccccc2)cc1 (configuration not stated)
inactive: endpoint: mean survival time, dose: 12.5 mg/kg/injection, schedule: Q01DX005 (ip), vehicle: distilled water + Tween-80 102 % of control | endpoint: mean survival time, dose: 25.0 mg/kg/injection, schedule: Q01DX005 (ip), vehicle: distilled water + Tween-80 98 % of control | endpoint: mean survival time, dose: 50.0 mg/kg/injection, schedule: Q01DX005 (ip), vehicle: distilled water + Tween-80 102 % of control | endpoint: mean survival time, dose: 100.0 mg/kg/injection, schedule: Q01DX005 (ip), vehicle: distilled water + Tween-80 97 % of control | endpoint: mean survival time, dose: 200.0 mg/kg/injection, schedule: Q01DX005 (ip), vehicle: distilled water + Tween-80 92 % of control

COc1cc2cc(c1Cl)N(C)C(=O)CC(OC(=O)C(C)C)C1(C)OC1C(C)C1CC(O)(NC(=O)O1)C(OC)/C=C/C=C(C)C2 (configuration not stated)
inactive: endpoint: mean survival time, dose: 3.8 micrograms/kg/injection, schedule: Q01DX009 (ip), vehicle: saline + alcohol 100 % of control | endpoint: mean survival time, dose: 7.5 micrograms/kg/injection, schedule: Q01DX009 (ip), vehicle: saline + alcohol 97 % of control | endpoint: mean survival time, dose: 15.0 micrograms/kg/injection, schedule: Q01DX009 (ip), vehicle: saline + alcohol 114 % of control | endpoint: mean survival time, dose: 30.0 micrograms/kg/injection, schedule: Q01DX009 (ip), vehicle: saline + alcohol 111 % of control | endpoint: mean survival time, dose: 60.0 micrograms/kg/injection, schedule: Q01DX009 (ip), vehicle: saline + alcohol 111 % of control

COc1ccc(NC(=O)Nc2cc(Cl)ccc2Cl)cc1
inactive: [7] 88 % of control | [9] 100 % of control

CNC(C)COc1ccccc1 (configuration not stated)
inactive: [6] 86 % of control

CC(O)CN1CCN(CC(C)O)CC1.[Cl][Pt+2][Cl] (configuration not stated)
inactive: endpoint: mean survival time, dose: 3.13 mg/kg/injection, schedule: Q04DX003 (ip), vehicle: saline with Tween-80 105 % of control | endpoint: mean survival time, dose: 6.25 mg/kg/injection, schedule: Q04DX003 (ip), vehicle: saline with Tween-80 102 % of control | endpoint: mean survival time, dose: 12.5 mg/kg/injection, schedule: Q04DX003 (ip), vehicle: saline with Tween-80 105 % of control | [11] 102 % of control | [12] 97 % of control

O=C1OCCC1=P(c1ccccc1)(c1ccccc1)c1ccccc1
inactive: [3] 100 % of control | [5] 96 % of control | [7] 96 % of control

CCNc1cc(Cl)c(C(=O)O)cc1[N+](=O)[O-]
inactive: endpoint: mean survival time, dose: 100.0 mg/kg/injection, schedule: Q04DX003 (ip), vehicle: saline 105 % of control | endpoint: mean survival time, dose: 200.0 mg/kg/injection, schedule: Q04DX003 (ip), vehicle: saline 110 % of control | endpoint: mean survival time, dose: 400.0 mg/kg/injection, schedule: Q04DX003 (ip), vehicle: saline 115 % of control

NCC(=O)Nc1ccc(O)cc1
inactive: endpoint: mean survival time, dose: 180.0 mg/kg/injection, schedule: Q04DX003 (ip), vehicle: saline 104 % of control | endpoint: mean survival time, dose: 405.0 mg/kg/injection, schedule: Q04DX003 (ip), vehicle: saline 98 % of control

Nc1ccc(N=Nc2cccnc2)cc1
inactive: endpoint: mean survival time, dose: 100.0 mg/kg/injection, schedule: Q04DX002 (ip), vehicle: other 103 % of control | endpoint: mean survival time, dose: 200.0 mg/kg/injection, schedule: Q04DX002 (ip), vehicle: other 88 % of control

COC(=O)/C=C/c1ccc(OC(=O)c2ccccc2)cc1
inactive: [5] 95 % of control | [7] 96 % of control | [9] 98 % of control

CCOC(=O)CNC(=O)Oc1ccc(C=O)cc1OC
inactive: [2] 100 % of control | [3] 101 % of control | [5] 90 % of control

Cn1cnc([N+](=O)[O-])c1Sc1ncnc2c1ncn2C1CC(O)C(CO)O1 (configuration not stated)
inactive: endpoint: median survival time, dose: 3.75 mg/kg/injection, schedule: Q01DX005 (ip), vehicle: saline with Tween-80 104 % of control | endpoint: median survival time, dose: 7.5 mg/kg/injection, schedule: Q01DX005 (ip), vehicle: saline with Tween-80 106 % of control | endpoint: median survival time, dose: 15.0 mg/kg/injection, schedule: Q01DX005 (ip), vehicle: saline with Tween-80 103 % of control | endpoint: median survival time, dose: 30.0 mg/kg/injection, schedule: Q01DX005 (ip), vehicle: saline with Tween-80 106 % of control | endpoint: median survival time, dose: 60.0 mg/kg/injection, schedule: Q01DX005 (ip), vehicle: saline with Tween-80 118 % of control

c1ccc2c(P(c3cccc4ccccc34)c3cccc4ccccc34)cccc2c1
inactive: [13] 100 % of control | [14] 93 % of control | [15] 89 % of control

Cc1cc(C)c(N2C(=O)CC(Sc3ccccc3N)C2=O)c(C)c1 (configuration not stated)
inactive: [5] 92 % of control | [7] 96 % of control | [9] 94 % of control

O=C(O)C1C2CCC(CC2)C1C(=O)O (configuration not stated)
inactive: [16] 93 % of control | [17] 97 % of control | endpoint: mean survival time, dose: 400.0 mg/kg/injection, schedule: Q04DX002 (ip), vehicle: saline with Tween-80 101 % of control

O=C(Nc1ccc([N+](=O)[O-])cc1)OCc1ccccc1
inactive: [4] 104 % of control | [16] 100 % of control | [17] 108 % of control

CC1CCC2(C(=O)O)CCC3(C)C(=CCC4C5(C)CCC(O)C(C)(C)C5CCC43C)C2C1C (configuration not stated)
inactive: [13] 98 % of control | [14] 98 % of control | [15] 96 % of control

C#CCOCCC(C(C)=O)C(=O)OCC (configuration not stated)
inactive: [13] 104 % of control | [14] 100 % of control

O=C(N/N=C/c1ccc2c(c1)CCC2)c1cc2ccccc2cc1O
inactive: endpoint: mean survival time, dose: 100.0 mg/kg/injection, schedule: Q01DX001 (ip), vehicle: saline with Tween-80 92 % of control | [6] 95 % of control | endpoint: mean survival time, dose: 200.0 mg/kg/injection, schedule: Q01DX001 (ip), vehicle: saline with Tween-80 92 % of control | [8] 94 % of control | endpoint: mean survival time, dose: 400.0 mg/kg/injection, schedule: Q01DX001 (ip), vehicle: saline with Tween-80 87 % of control | [10] 89 % of control

Brc1ccc(-c2csc(Nc3nc(-c4ccc(Br)cc4)cs3)n2)cc1
inactive: [1] 86 % of control | [2] 96 % of control | [11] 97 % of control | [3] 96 % of control | [12] 87 % of control | [6] 88 % of control | [10] 92 % of control

CC(C)C(=O)C(C)(C)C(=O)N1CCCCC1
inactive: [5] 96 % of control | [7] 103 % of control | [9] 94 % of control
